# Assay results published in US11053251B2, “GPR35 modulators” (Prometheus Biosciences, Inc., priority 2019, dated 2021).
# Molecular target: Human GPR35 (Homo sapiens, UniProt Q9HC97, S294R)
# Assay: Alternative Beta-Arrestin Assay (JumpIn 294R Tango U2OS cells, LiveBLAzer-FRET B/G)
# Type: cell-based
# Conditions: Human GPR35 expressing JumpIn 294R Tango U2OS cells, 5 hours treatment
# Method in brief: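 Beta-arrestin recruitment measured as FRET ratio change using CCF4-AM loading for 2 h, following 5-hour compound treatment of GPR35 (S294R) JumpIn Tango U2OS cells. Zaprinast served as positive control; EC50 values from four-parameter dose-response fits.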
# Sequence of Human GPR35 (Q9HC97 whole entry S294R): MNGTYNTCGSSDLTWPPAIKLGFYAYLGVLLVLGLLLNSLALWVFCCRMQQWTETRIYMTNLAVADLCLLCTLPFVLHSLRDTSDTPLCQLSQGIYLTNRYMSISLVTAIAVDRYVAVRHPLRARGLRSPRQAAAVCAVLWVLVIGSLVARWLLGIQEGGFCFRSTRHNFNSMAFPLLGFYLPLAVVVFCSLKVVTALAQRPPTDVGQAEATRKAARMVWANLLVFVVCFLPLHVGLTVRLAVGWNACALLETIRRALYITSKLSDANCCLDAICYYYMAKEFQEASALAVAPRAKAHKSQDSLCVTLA
row,EC50 [µM],Compound
1,≤ 10,"CCOc1cc(-c2cccc(CC(CC)C(=O)O)c2)ccc1-c1nc2[nH]nnc2c(=O)[nH]1 (single isomer, unassigned) [Compound 241, 2-((3′-ethoxy-4′-(7-oxo-6,7-dihydro-3H-[1,2,3]triazolo[4,5-d]pyrimidin-5-yl)-[1,1′-biphenyl]-3-yl)methyl)butanoic acid]"
2,≤ 10,"CCOc1cc(-c2ccc(OCCN3CCCC3)c(/C=C(\C)C(=O)O)c2)ccc1-c1nc2[nH]nnc2c(=O)[nH]1 [Compound 299, (E)-3-(3′-ethoxy-4′-(7-oxo-6,7-dihydro-3H-[1,2,3]triazolo[4,5-d]pyrimidin-5-yl)-4-(2-(pyrrolidin-1-yl)ethoxy)-[1,1′-biphenyl]-3-yl)-2-methylacrylic acid]"
3,≤ 10,"CCOc1cc(-c2ccc(C(=O)O)c(C)c2)ccc1-c1nc2[nH]nnc2c(=O)[nH]1 [Compound 207, 3′-Ethoxy-3-methyl-4′-(7-oxo-6,7-dihydro-3H-[1,2,3]triazolo[4,5-d]pyrimidin-5-yl)-[1,1′-biphenyl]-4-carboxylic acid]"
4,≤ 10,"CCOc1cc(-c2ccc(OCCN3CCCC3)c(CCC(=O)O)c2)ccc1-c1nc2[nH]nnc2c(=O)[nH]1 [Compound 318, 3-(3′-ethoxy-4′-(7-oxo-6,7-dihydro-3H-[1,2,3]triazolo[4,5-d]pyrimidin-5-yl)-4-(2-(pyrrolidin-1-yl)ethoxy)-[1,1′-biphenyl]-3-yl)propanoic acid]"
5,≤ 10,"CCOc1cc(-c2cccc(NCCC(=O)O)c2)ccc1-c1nc2[nH]nnc2c(=O)[nH]1 [Compound 226, 3-((3′-Ethoxy-4′-(7-oxo-6,7-dihydro-3H-[1,2,3]triazolo[4,5-d]pyrimidin-5-yl)-[1,1′-biphenyl]-3-yl)amino)propanoic acid]"
6,≤ 10,"CC(Oc1cccc(-c2ccc(-c3nc4[nH]nnc4c(=O)[nH]3)c(OC3CCCC3)c2)c1)C(=O)O (stereo not shown) [Compound 250, 2-((3′-(cyclopentyloxy)-4′-(7-oxo-6,7-dihydro-3H-[1,2,3]triazolo[4,5-d]pyrimidin-5-yl)-[1,1′-biphenyl]-3-yl)oxy)propanoic acid]"
7,≤ 10,"O=C(O)c1ccc(-c2ccc(-c3nc4[nH]nnc4c(=O)[nH]3)cc2NCc2ccccc2)cc1 [Compound 290, 2′-(benzylamino)-4′-(7-oxo-6,7-dihydro-3H-[1,2,3]triazolo[4,5-d]pyrimidin-5-yl)-[1,1′-biphenyl]-4-carboxylic acid]"
8,≤ 10,"CCOc1cc(-c2cc(O)cc(O[C@H](C)C(=O)O)c2)ccc1-c1nc2[nH]nnc2c(=O)[nH]1 (single isomer, unassigned) [Compound 255]"
9,≤ 10,"CCOc1cc(-c2cccc(/C=C/C(=O)O)c2)ccc1-c1nc2[nH]nnc2c(=O)[nH]1 [Compound 235, (E)-3-(3′-ethoxy-4′-(7-oxo-6,7-dihydro-3H-[1,2,3]triazolo[4,5-d]pyrimidin-5-yl)-[1,1′-biphenyl]-3-yl)acrylic acid]"
10,≤ 10,"O=C(O)CNc1cccc(-c2ccc(-c3nc4[nH]nnc4c(=O)[nH]3)c(OC3CCCC3)c2)c1 [Compound 225, (3′-(Cyclopentyloxy)-4′-(7-oxo-6,7-dihydro-3H-[1,2,3]triazolo[4,5-d]pyrimidin-5-yl)-[1,1′-biphenyl]-3-yl)glycine]"
11,≤ 10,"CCOc1cc(-c2cccc(C(=O)O)c2F)ccc1-c1nc2[nH]nnc2c(=O)[nH]1 [Compound 186, 3′-ethoxy-2-fluoro-4′-(7-oxo-6,7-dihydro-3H-[1,2,3]triazolo[4,5-d]pyrimidin-5-yl)-[1,1′-biphenyl]-3-carboxylic acid]"
12,≤ 10,"CCOc1cc(-c2cccc([C@H]3C[C@H]3C(=O)O)c2)ccc1-c1nc2[nH]nnc2c(=O)[nH]1 (single isomer, unassigned) [Compound 308, cis-2-(3′-ethoxy-4′-(7-oxo-6,7-dihydro-3H-[1,2,3]triazolo[4,5-d]pyrimidin-5-yl)-[1,1′-biphenyl]-3-yl)cyclopropane-1-carboxylic acid]"
13,≤ 10,"CCOc1cc(-c2nc(C(=O)O)cs2)ccc1-c1nc2[nH]nnc2c(=O)[nH]1 [Compound 187, 2-(3-ethoxy-4-(7-oxo-6,7-dihydro-3H-[1,2,3]triazolo[4,5-d]pyrimidin-5-yl)phenyl)thiazole-4-carboxylic acid]"
14,≤ 10,"CCOc1cc(-c2cccc([C@@H]3C[C@H]3C(=O)O)c2)ccc1-c1nc2[nH]nnc2c(=O)[nH]1 (single isomer, unassigned) [Compound 279, trans-2-(3′-ethoxy-4′-(7-oxo-6,7-dihydro-3H-[1,2,3]triazolo[4,5-d]pyrimidin-5-yl)-[1,1′-biphenyl]-3-yl)cyclopropane-1-carboxylic acid]"
15,≤ 10,"CCOc1cc(-c2ccc(O)c(OCC(=O)O)c2)ccc1-c1nc2[nH]nnc2c(=O)[nH]1 [Compound 281, 2-((3′-ethoxy-4-hydroxy-4′-(7-oxo-6,7-dihydro-3H-[1,2,3]triazolo[4,5-d]pyrimidin-5-yl)-[1,1′-biphenyl]-3-yl)oxy)acetic acid]"
16,≤ 10,"CCOc1cc(-c2cc(F)c(F)c(O[C@H](C)C(=O)O)c2)ccc1-c1nc2[nH]nnc2c(=O)[nH]1 (single isomer, unassigned) [Compound 260]"

row,EC50 [µM],Compound
1,≤ 10,"CCOc1cc(-c2ccc(O)c(NCC(=O)O)c2)ccc1-c1nc2[nH]nnc2c(=O)[nH]1 [Compound 222, (3′-Ethoxy-4-hydroxy-4′-(7-oxo-6,7-dihydro-3H-[1,2,3]triazolo[4,5-d]pyrimidin-5-yl)-[1,1′-biphenyl]-3-yl)glycine]"
2,≤ 10,"CCOc1cc(-c2cc(C(=O)O)n(C)c2)ccc1-c1nc2[nH]nnc2c(=O)[nH]1 [Compound 192, 4-(3-ethoxy-4-(7-oxo-6,7-dihydro-3H-[1,2,3]triazolo[4,5-d]pyrimidin-5-yl)phenyl)-1-methyl-1H-pyrrole-2-carboxylic acid]"
3,≤ 10,"CCOc1cc(-c2ccc(OCCN3CCCC3)c(CC(C)C(=O)O)c2)ccc1-c1nc2[nH]nnc2c(=O)[nH]1 (stereo not shown) [Compound 300, 3-(3′-ethoxy-4′-(7-oxo-6,7-dihydro-3H-[1,2,3]triazolo[4,5-d]pyrimidin-5-yl)-4-(2-(pyrrolidin-1-yl)ethoxy)-[1,1′-biphenyl]-3-yl)-2-methylpropanoic acid]"
4,≤ 10,"CN(C)c1cc(-c2nc3[nH]nnc3c(=O)[nH]2)ccc1-c1ccc(C(=O)O)cc1 [Compound 288, 2′-(dimethylamino)-4′-(7-oxo-6,7-dihydro-3H-[1,2,3]triazolo[4,5-d]pyrimidin-5-yl)-[1,1′-biphenyl]-4-carboxylic acid]"
5,≤ 10,"CCOc1cc(-c2cccc(OC(C(=O)O)c3ccccc3)c2)ccc1-c1nc2[nH]nnc2c(=O)[nH]1 (stereo not shown) [Compound 249, 2-((3′-ethoxy-4′-(7-oxo-6,7-dihydro-3H-[1,2,3]triazolo[4,5-d]pyrimidin-5-yl)-[1,1′-biphenyl]-3-yl)oxy)-2-phenylacetic acid]"
6,≤ 10,"O=c1[nH]c(-c2ccc(-c3ccc(-c4nnn[nH]4)cc3)cc2OC2CCCC2)nc2[nH]nnc12 [Compound 273, 5-(3-(cyclopentyloxy)-4′-(1H-tetrazol-5-yl)-[1,1′-biphenyl]-4-yl)-3,6-dihydro-7H-[1,2,3]triazolo[4,5-d]pyrimidin-7-one]"
7,≤ 10,"CCOc1cc(-c2cccc(O[C@H](C)C(=O)O)c2)ccc1-c1nc2[nH]nnc2c(=O)[nH]1 (single isomer, unassigned) [Compound 251]"
8,≤ 10,"CCOC(=O)C(Oc1cccc(-c2ccc(-c3nc4[nH]nnc4c(=O)[nH]3)c(OCC)c2)c1)C(C)C (stereo not shown) [Compound 268, ethyl 2-((3′-ethoxy-4′-(7-oxo-6,7-dihydro-3H-[1,2,3]triazolo[4,5-d]pyrimidin-5-yl)-[1,1′-biphenyl]-3-yl)oxy)-3-methylbutanoate]"
9,≤ 10,"CCOc1cc(-c2ccc(O)c(OC(C)C(=O)O)c2)ccc1-c1nc2[nH]nnc2c(=O)[nH]1 (stereo not shown) [Compound 280, 2-((3′-ethoxy-4-hydroxy-4′-(7-oxo-6,7-dihydro-3H-[1,2,3]triazolo[4,5-d]pyrimidin-5-yl)-[1,1′-biphenyl]-3-yl)oxy)propanoic acid]"
10,≤ 10,"O=C(O)c1ccc(-c2ccc(-c3nc4[nH]nnc4c(=O)[nH]3)cc2NC2CCCCC2)cc1 [Compound 289, 2′-(cyclohexylamino)-4′-(7-oxo-6,7-dihydro-3H-[1,2,3]triazolo[4,5-d]pyrimidin-5-yl)-[1,1′-biphenyl]-4-carboxylic acid]"
11,≤ 10,"CCOc1cc(-c2cccc(CC3(C(=O)O)CCC3)c2)ccc1-c1nc2[nH]nnc2c(=O)[nH]1 [Compound 246, 1-((3′-ethoxy-4′-(7-oxo-6,7-dihydro-3H-[1,2,3]triazolo[4,5-d]pyrimidin-5-yl)-[1,1′-biphenyl]-3-yl)methyl)cyclobutane-1-carboxylic acid]"
12,≤ 10,"CCOc1cc(-c2cc(O)cc(OC(C)C(=O)O)c2)ccc1-c1nc2[nH]nnc2c(=O)[nH]1 (stereo not shown) [Compound 276, 2-((3′-ethoxy-5-hydroxy-4′-(7-oxo-6,7-dihydro-3H-[1,2,3]triazolo[4,5-d]pyrimidin-5-yl)-[1,1′-biphenyl]-3-yl)oxy)propanoic acid]"
13,≤ 10,"CCOC(=O)C(C)c1cccc(-c2ccc(-c3nc4[nH]nnc4c(=O)[nH]3)c(OCC)c2)c1 (stereo not shown) [Compound 296, ethyl 2-(3′-ethoxy-4′-(7-oxo-6,7-dihydro-3H-[1,2,3]triazolo[4,5-d]pyrimidin-5-yl)-[1,1′-biphenyl]-3-yl)propanoate]"
14,≤ 10,"CCOc1cc(-c2ccc(OCCN3CCCC3)c(/C=C/C(=O)O)c2)ccc1-c1nc2[nH]nnc2c(=O)[nH]1 [Compound 317, (E)-3-(3′-ethoxy-4′-(7-oxo-6,7-dihydro-3H-[1,2,3]triazolo[4,5-d]pyrimidin-5-yl)-4-(2-(pyrrolidin-1-yl)ethoxy)-[1,1′-biphenyl]-3-yl)acrylic acid]"
15,≤ 10,"CCOc1cc(-c2cccc(C(C)(C)C(=O)O)c2)ccc1-c1nc2[nH]nnc2c(=O)[nH]1 [Compound 298, 2-(3′-ethoxy-4′-(7-oxo-6,7-dihydro-3H-[1,2,3]triazolo[4,5-d]pyrimidin-5-yl)-[1,1′-biphenyl]-3-yl)-2-methylpropanoic acid]"
